Literature values, collected in patent US8101199B2, “Des-methyl-tocopherol therapy for restenosis prevention” (Celonova Biosciences, Inc., priority 2003, dated 2012).

Assays:
[1] = relative to d-Alpha-Toc = 100
[2] = tested on: previously dilated artery segment; details: 1200 IU/day orally for 4 months after PTCA
coronary restenosis = details: clinical trials
femoral arteries = details: rabbit; three weeks after angioplasty; oral treatment beginning 19 d before angioplasty
[3] = tested on: rabbit vascular smooth muscle cells
native coronary vessels = details: addition of 200 mg for all subjects during the study

CC(=O)Oc1c(C)c(C)c2c(c1C)CCC(C)(CCCC(C)CCCC(C)CCCC(C)C)O2 (racemic) [dl-ALpha-Tocopherol acet.]
Antioxidant Activity (d-Alpha-Toc = 100) [1]: 0

Cc1c(C)c2c(c(C)c1O)CCC(C)(CCCC(C)CCCC(C)CCCC(C)C)O2 (racemic) [dl-Alpha-Tocopherol]
overall incidence of restenosis defined by an abnormal angiogram or thallium test or exercise stress test [2]: 34.6%
restenosis (angiographically documented) [2]: 35.5%
Antioxidant Activity (d-Alpha-Toc = 100) [1]: 100

CC(C)(Sc1cc(C(C)(C)C)c(O)c(C(C)(C)C)c1)Sc1cc(C(C)(C)C)c(O)c(C(C)(C)C)c1 [Probucol]
prevention of coronary restenosis after balloon angioplasty (coronary restenosis): shown to prevent coronary restenosis

Cc1c(C)c2c(c(C)c1O)CC[C@@](C)(CCC[C@H](C)CCC[C@H](C)CCCC(C)C)O2 [alpha-tocopherol, Alpha-Tocopherol]
angiographically determined minimum luminal diameter (femoral arteries): 1.38+/−0.29 mm
cross-sectional area of the intima-media (femoral arteries): 0.62+/−0.25 mm2
DNA synthesis stimulated by oxidized low density lipoprotein [3]: inhibited DNA synthesis
effect on restenosis rates (native coronary vessels): no effect on restenosis rates

CC(=O)Oc1c(C)c(C)c2c(c1C)CC[C@@](C)(CCC[C@H](C)CCC[C@H](C)CCCC(C)C)O2 [d-Alpha-Tocopherol acet.]
Antioxidant Activity (d-Alpha-Toc = 100) [1]: 0

Cc1c(C)c2c(c(C)c1O)CC[C@@](C)(CCC[C@H](C)CCC[C@H](C)CCCC(C)C)O2 [d-Alpha-Tocopherol]
Antioxidant Activity (d-Alpha-Toc = 100) [1]: 100

Cc1cc(O)c(C)c2c1O[C@](C)(CCC[C@H](C)CCC[C@H](C)CCCC(C)C)CC2 [d-Beta-Tocopherol]
Antioxidant Activity (d-Alpha-Toc = 100) [1]: 130

Cc1cc(O)cc2c1O[C@](C)(CCC[C@H](C)CCC[C@H](C)CCCC(C)C)CC2 [d-Delta-Tocopherol]
Antioxidant Activity (d-Alpha-Toc = 100) [1]: 300–500

Cc1c(O)cc2c(c1C)O[C@](C)(CCC[C@H](C)CCC[C@H](C)CCCC(C)C)CC2 [d-Gamma-Tocopherol]
Antioxidant Activity (d-Alpha-Toc = 100) [1]: 200

Cc1c(O)cc2c(c1C)OC(C)(CCC(=O)O)CC2 (stereo not drawn) [gamma-CEHC, 2,7,8-trimethyl-2-(beta-carboxyethyl)-6-hydroxychroman]
cyclooxygenase activity inhibition (cyclooxygenase): inhibit cyclooxygenase activity

Cc1c(O)cc2c(c1C)O[C@](C)(CCC[C@H](C)CCC[C@H](C)CCCC(C)C)CC2 [gamma-tocopherol, Gamma-Tocopherol]
cyclooxygenase activity inhibition (cyclooxygenase): inhibit cyclooxygenase activity
